Measured values as given in patent US4503056A, “1-(Pyridazinyl)pyrazoline derivatives” (Abbott Laboratories, priority 1982, dated 1985).

What was measured:
dermal Arthus reaction = assay: reverse passive Arthus reaction test; format: in vivo, Male Sprague-Dawley rats; settings: rats; 100 mg/kg oral, 30 min before intradermal Anti-B.S.A.; lesion measured 4 hours later; reduction in lesion area vs control
Procedure: Proc. 35, 774 (1976). Each compound was administered orally to a group of four animals.
The reverse passive Arthus reaction test in rats is conducted as follows: Male Sprague-Dawley rats weighing approximately 130-160 g. are used, 4 rats per group. All animals are injected intravenously with 0.5 ml. 0.075% Bovine Serum Albumin (B.S.A.)+2% Evans Blue solution. Each rat then receives an oral dose of drug; one drug is administered per group.
Thirty minutes subsequent to drug dosing, each animal is injected intradermally with 0.05 ml. 1.44% Anti-B.S.A. into the dorsal skin. Four hours later the animals are sacrificed, the dorsal skin reflexed, and the lesion excised. Two perpendicular diameters of each lesion are measured. The average diameters of the lesions from the treated groups are compared with the average diameters from the control group to determine any drug effect.

carrageenin pleurisy = assay: modification of the carrageenin pleurisy assay (Vinegar et al.); format: in vivo; settings: Dose 100 (dose unit not given); for % Inhibition, Volume exudates: reduction in accumulation of exudate volume; for % Inhibition, Cells: reduction in accumulation of leukocytes
Description: The anti-inflammatory activity of these compounds was established by using a modification of the carrageenin pleurisy assay described by Vinegar et al. Proc. Soc. Exp. Biol. Med. 143:711 (1973).

| Structure (SMILES) | % Inhibition of lesion of dermal Arthus reaction (dermal Arthus reaction) | % Inhibition, Volume exudates (carrageenin pleurisy) [%] | % Inhibition, Cells (carrageenin pleurisy) [%] |
| --- | --- | --- | --- |
| NC1=NN(c2ccc(-c3cccc(Cl)c3)nn2)CC1 [1-[6'-(meta-chlorophenyl)pyridazin-3'-yl]-3-aminopyrazol-2-ene] | 51% | – | – |
| NC1=NN(c2ccc(-c3ccccc3Cl)nn2)CC1 [1-[6'-(ortho-chlorophenyl)-pyridazin-3'-yl]-3-aminopyrazol-2-ene] | 58% | – | – |
| NC1=NN(c2ccc(-c3ccccc3)nn2)CC1 [1-[6'-Phenylpyridazin-3'-yl]-3-aminopyrazol-2-ene] | 65% | 73 | 51 |
| CC1CC(N)=NN1c1ccc(-c2ccccc2)nn1 (stereo not drawn) [1-[6'-phenylpyridazin-3'-yl]-3-amino-5-methylpyrazol-2-ene] | 54% | – | – |
| CCCCC1C(=O)N(c2ccccc2)N(c2ccccc2)C1=O [Phenylbutazone, reference compound] | inactive | 59 | 13 |
